# Laboratory results from article PMC3395220 (Journal of Medicinal Chemistry, 2012).
# Read-outs that look alike come from different tables or passages of the source.
# Columns and labels:
# 60 cancer cell lines = assay: cells; assay type: cell-based, human; settings: Homo sapiens
# SW-620 = assay type: cell-based, human; settings: 10^Δ2-x, relative to compound 2
# SF-295 [1] = assay type: cell-based, human; settings: 10^Δ2-x, relative to compound 2
# SK-MEL-5 [2] = assay type: cell-based, human; settings: 10^Δ2-x, relative to compound 2
# MOLT-4 = assay type: cell-based, human; settings: 10^Δ2-x, relative to compound 2
# COLO 205 [3] = assay type: cell-based, human; settings: 10^Δ2-x, relative to compound 2
# HCC-2998 = assay type: cell-based, human; settings: 10^Δ2-x, relative to compound 2
# OVCAR-3 = assay type: cell-based, human; settings: 10^Δ2-x, relative to compound 2
# [4] = system: COLO-205 (colon), A549 (non-small cell lung) and BXCP3 (pancreas); assay: cells; assay type: cell-based; settings: 72 h, read-out: average GI50 (50% of growth inhibition)
# BT-549 = assay type: cell-based, human; settings: 10^Δ2-x, relative to compound 2
# DU-145 = assay type: cell-based, human; settings: 10^Δ2-x, relative to compound 2
# HL-60(TB) = assay type: cell-based, human; settings: 10^Δ2-x, relative to compound 2
# NCI-H460 = assay type: cell-based, human; settings: 10^Δ2-x, relative to compound 2
# UO-31 = assay type: cell-based, human; settings: 10^Δ2-x, relative to compound 2
# MDA-MB-468 = assay type: cell-based, human; settings: 10^Δ2-x, relative to compound 2
# HCT-15 = assay type: cell-based, human; settings: 10^Δ2-x, relative to compound 2
# A498 = assay type: cell-based, human; settings: 10^Δ2-x, relative to compound 2
# UACC-257 = assay type: cell-based, human; settings: 10^Δ2-x, relative to compound 2
# OVCAR-8 [5] = assay type: cell-based, human; settings: 10^Δ2-x, relative to compound 2
# LOX IMVI = assay type: cell-based, human; settings: 10^Δ2-x, relative to compound 2
# OVCAR-4 = assay type: cell-based, human; settings: 10^Δ2-x, relative to compound 2
# K-562 = assay type: cell-based, human; settings: 10^Δ2-x, relative to compound 2
# U251 [6] = assay type: cell-based, human; settings: 10^Δ2-x, relative to compound 2
# SNB-19 = assay type: cell-based, human; settings: 10^Δ2-x, relative to compound 2
# PC-3 = assay type: cell-based, human; settings: 10^Δ2-x, relative to compound 2
# M14 = assay type: cell-based, human; settings: 10^Δ2-x, relative to compound 2
# CAKI-1 = assay type: cell-based, human; settings: 10^Δ2-x, relative to compound 2
# NCI-H226 = assay type: cell-based, human; settings: 10^Δ2-x, relative to compound 2
# HOP-92 = assay type: cell-based, human; settings: 10^Δ2-x, relative to compound 2
# SF-268 = assay type: cell-based, human; settings: 10^Δ2-x, relative to compound 2
# IGROV1 [7] = assay type: cell-based, human; settings: 10^Δ2-x, relative to compound 2
# 786-0 = assay type: cell-based, human; settings: 10^Δ2-x, relative to compound 2
# NCI-H23 = assay type: cell-based, human; settings: 10^Δ2-x, relative to compound 2
# SNB-75 = assay type: cell-based, human; settings: 10^Δ2-x, relative to compound 2
# KM12 = assay type: cell-based, human; settings: 10^Δ2-x, relative to compound 2
# MDA-MB-231/ATCC [8] = assay type: cell-based, human; settings: 10^Δ2-x, relative to compound 2
# RPMI-8226 = assay type: cell-based, human; settings: 10^Δ2-x, relative to compound 2
# NCI/ADR-RES = assay: cells; assay type: cell-based, human; settings: 10^Δ2-x, relative to compound 2
# EKVX = assay type: cell-based, human; settings: 10^Δ2-x, relative to compound 2
# HT29 = assay type: cell-based, human; settings: 10^Δ2-x, relative to compound 2
# CCRF-CEM = assay type: cell-based, human; settings: 10^Δ2-x, relative to compound 2
# A549/ATCCC [9] = assay type: cell-based, human; settings: 10^Δ2-x, relative to compound 2
# SN12C = assay type: cell-based, human; settings: 10^Δ2-x, relative to compound 2
# OVCAR-5 = assay type: cell-based, human; settings: 10^Δ2-x, relative to compound 2
# MCF7 = assay type: cell-based, human; settings: 10^Δ2-x, relative to compound 2
# HS578T = assay type: cell-based, human; settings: 10^Δ2-x, relative to compound 2
# HCT-116 = assay type: cell-based, human; settings: 10^Δ2-x, relative to compound 2
# SF-539 = assay type: cell-based, human; settings: 10^Δ2-x, relative to compound 2
# SK-MEL2 = assay type: cell-based, human; settings: 10^Δ2-x, relative to compound 2
# [10] = system: panel of 12 tumor cell lines implanted in mice; assay: NCI hollow fiber assay; assay type: in vivo; settings: for hollow fiber assay total score: 12 tumor cell lines, daily ip for four days
# ACHN = assay type: cell-based, human; settings: 10^Δ2-x, relative to compound 2
# UACC-62 = assay type: cell-based, human; settings: 10^Δ2-x, relative to compound 2
# RXF 393 = assay type: cell-based, human; settings: 10^Δ2-x, relative to compound 2
# SK-MEL28 = assay type: cell-based, human; settings: 10^Δ2-x, relative to compound 2
# T-47D = assay type: cell-based, human; settings: 10^Δ2-x, relative to compound 2
# MDA-MB-435 = assay type: cell-based, human; settings: 10^Δ2-x, relative to compound 2
# NCI-H522 = assay type: cell-based, human; settings: 10^Δ2-x, relative to compound 2
# TK-10 = assay type: cell-based, human; settings: 10^Δ2-x, relative to compound 2
# SR = assay type: cell-based, human; settings: 10^Δ2-x, relative to compound 2
# HOP-62 = assay type: cell-based, human; settings: 10^Δ2-x, relative to compound 2
# SK-MEL-2 melanoma cells = assay: Subcutaneous SK-MEL-2 melanoma xenograft; assay type: in vivo, athymic nu/nu mice; settings: ip 8 mg/kg q4dx3, positive control
# SK-MEL-5 [11] = settings: read-out: Average GI50; SK-MEL-5, melanoma; ref historical data at the NCI; cited from earlier work
# A549/ATCCC [12] = settings: read-out: Average GI50; A549, NSCL; ref historical data at the NCI; cited from earlier work
# U251 [13] = settings: read-out: Average GI50; U251, CNS; ref historical data at the NCI; cited from earlier work
# SF-295 [14] = settings: read-out: Average GI50; SF-295, CNS; ref historical data at the NCI; cited from earlier work
# OVCAR-8 [15] = settings: read-out: Average GI50; OVCAR-8, ovarian; ref historical data at the NCI; cited from earlier work
# COLO 205 [16] = settings: read-out: Average GI50; COLO205, colon; ref historical data at the NCI; cited from earlier work
# MDA-MB-231/ATCC [17] = settings: read-out: Average GI50; MDA-MB-231, breast; ref historical data at the NCI; cited from earlier work
# IGROV1 [18] = settings: read-out: Average GI50; IGROV 1, ovarian; ref historical data at the NCI; cited from earlier work
compound,measurement,setting,value
"CO[C@H](C(=O)[C@@H](O)[C@@H](C)O)[C@@H]1Cc2cc3cc(O[C@H]4C[C@@H](O[C@H]5C[C@@H](O)[C@H](O)[C@@H](C)O5)[C@H](O)[C@@H](C)O4)c(C)c(O)c3c(O)c2C(=O)[C@H]1O[C@H]1C[C@@H](O[C@H]2C[C@@H](O[C@H]3C[C@H](O)[C@H](O)[C@@H](C)O3)[C@H](O)[C@@H](C)O2)[C@H](O)[C@@H](C)O1 [Compound 2, demycarosyl-3D-β-D-digitoxosyl-mithramycin, reference compound]",GI50,60 cancer cell lines; read-out: Mean GI50,51 nM
"CO[C@H](C(=O)C(C)=O)[C@@H]1Cc2cc3cc(O[C@H]4C[C@@H](O[C@H]5C[C@@H](O)[C@H](O)[C@@H](C)O5)[C@H](O)[C@@H](C)O4)c(C)c(O)c3c(O)c2C(=O)[C@H]1O[C@H]1C[C@@H](O[C@H]2C[C@@H](O[C@H]3C[C@H](O)[C@H](O)[C@@H](C)O3)[C@H](O)[C@@H](C)O2)[C@H](O)[C@@H](C)O1 [Compound 11, demycarosyl-3D-β-D-digitoxosyl-mithramycin SDK]",activity improvement factor,SW-620,1.22
same,activity improvement factor,SF-295 [1],2.32
same,activity improvement factor,SK-MEL-5 [2],1.24
same,activity improvement factor,MOLT-4,1.76
same,activity improvement factor,COLO 205 [3],1.60
same,activity improvement factor,HCC-2998,4.79
same,activity improvement factor,OVCAR-3,3.43
same,GI50,[4],300 to 1300 nM
same,activity improvement factor,BT-549,1.26
same,activity improvement factor,DU-145,3.63
same,activity improvement factor,HL-60(TB),3.09
same,activity improvement factor,NCI-H460,1.19
same,activity improvement factor,UO-31,1.30
same,activity improvement factor,MDA-MB-468,2.14
same,activity improvement factor,HCT-15,5.82
same,activity improvement factor,A498,0.68
same,activity improvement factor,UACC-257,1.17
same,activity improvement factor,OVCAR-8 [5],2.11
same,activity improvement factor,LOX IMVI,1.51
same,GI50,60 cancer cell lines; read-out: Mean GI50,28 nM
same,GI50,60 cancer cell lines; read-out: Mean log(GI50) (converted),28.2 nM
same,activity improvement factor,OVCAR-4,2.88
same,activity improvement factor,K-562,1.26
same,activity improvement factor,U251 [6],1.35
same,activity improvement factor,SNB-19,2.57
same,activity improvement factor,PC-3,4.37
same,activity improvement factor,M14,2.75
same,activity improvement factor,CAKI-1,1.82
same,activity improvement factor,NCI-H226,1.32
same,activity improvement factor,HOP-92,1.50
same,activity improvement factor,SF-268,1.66
same,activity improvement factor,IGROV1 [7],3.24
same,activity improvement factor,786-0,2.43
same,activity improvement factor,NCI-H23,2.79
same,activity improvement factor,SNB-75,2.75
same,activity improvement factor,KM12,2.32
same,activity improvement factor,MDA-MB-231/ATCC [8],2.00
same,activity improvement factor,RPMI-8226,0.75
same,activity improvement factor,NCI/ADR-RES,4.68
same,activity improvement factor,EKVX,1.48
same,activity improvement factor,HT29,3.13
same,activity improvement factor,CCRF-CEM,1.16
same,activity improvement factor,A549/ATCCC [9],1.68
same,activity improvement factor,SN12C,1.45
same,activity improvement factor,OVCAR-5,2.57
same,activity improvement factor,MCF7,0.65
same,activity improvement factor,HS578T,1.76
same,activity improvement factor,HCT-116,1.30
same,activity improvement factor,SF-539,1.58
same,activity improvement factor,SK-MEL2,2.24
same,hollow fiber assay total score,[10],48/96
same,activity improvement factor,ACHN,2.09
same,activity improvement factor,UACC-62,0.91
same,activity improvement factor,RXF 393,1.91
same,activity improvement factor,SK-MEL28,1.30
same,activity improvement factor,T-47D,1.32
same,activity improvement factor,MDA-MB-435,1.70
same,activity improvement factor,NCI-H522,0.70
same,activity improvement factor,TK-10,1.50
same,activity improvement factor,SR,1.22
same,activity improvement factor,HOP-62,3.39
"COc1cccc2c1C(=O)c1c(O)c3c(c(O)c1C2=O)C[C@@](O)(C(=O)CO)C[C@@H]3O[C@H]1C[C@H](N)[C@H](O)[C@H](C)O1 [doxorubicin, reference compound]",growth of SK-MEL-2 human melanoma xenografts,SK-MEL-2 melanoma cells,markedly delayed
mithramycin [Compound 1],GI50,SK-MEL-5 [11],63 nM
same,GI50,A549/ATCCC [12],79 nM
same,GI50,U251 [13],63 nM
same,GI50,SF-295 [14],79 nM
same,GI50,OVCAR-8 [15],79 nM
same,GI50,COLO 205 [16],63 nM
same,GI50,MDA-MB-231/ATCC [17],166 nM
same,hollow fiber assay total score,[10],58/96
same,hollow fiber assay intraperitoneal score,[10]; intraperitoneal implants,34/48
same,hollow fiber assay subcutaneous score,[10]; subcutaneous implants,24/48
same,GI50,IGROV1 [18],158 nM
